*1 amine or outer side, *2 acyl side, *3 side chain or, on linkers, in order; H or OH if unused. Where a SMILES comes first, the peptide text is derived from it. Bridges are numbered along the chain shown (N, C = ends). Roman numbers before positions name the chains, in order. [ ]: non-standard residue; d: D form. Actinocin(9to1) = Cc1c2oc3c(C)ccc(C(=O)[*:1])c3nc-2c(C(=O)[*:2])c(N)c1=O; NMeV = CN[C@H](C(=O)O)C(C)C; Sar = CNCC(=O)O
What was measured:
[1] = system: P388/ADR (adriamycin resistant) leukemia; assay: Antitumor activity in vivo, P388/ADR leukemia; set-up: species or system mice; conditions: at optimal dose, ip days 1, 5, 9
Procedure: The analogues were also tested against P388/ADR murine leukemia following the standard protocol (Table VI).
ILS = percent increase in life span.

mammary MX-1 = assay: Treatment of mammary MX-1 tumor; format: in vivo; conditions: at the doses tested
[2] = Metabolism in tumor cell homogenate (T); format: in vitro ADME, murine; conditions: P388 homogenate (T), 37° C., 16 h
Procedure: (§1) In this respect, actinomycin is only about 30% as efficient as its synthetic analogues, RAD III (3c) and SAD (2) (Table II). Metabolic Studies, Metabolism in the Presence of Tumor Cell Homogenates and Rat Liver Microsomes. The cell homogenates (P388 cells were sonicated and were incubated at 37° C. with analogues for 16 h. Rat microsomes were harvested from phenobarbital-induced rats by standard procedure. Incubations were carried out for 6 h in the presence of a NADPH-generating system, i.e., glucose-6-phosphate dehydrogenase and glucose 6-phosphate. The metabolites and their water-soluble conjugates were isolated and identified with the use of tritiated analogues.
(§2) It was observed that the RAD analogues are metabolized to SAD (2) with the loss of oxazole ring. […] In tumor cells, a larger fraction of SAD (2) (30-50%) remains unmetabolized. SAD is found to form glucuronide and sulfate conjugates only in tumor cells. […] Isolation of SAD from RAD analogues is a very important step, because SAD is found to be a potent and effective antitumor agent in several murine tumor systems (Tables V-XII).

[3] = Toxic deaths in nontumored mice treated in parallel (colon 38 experiment); format: in vivo
Source text: × 100; in parenthesis, number of over 100 day survivors/number of
mice in a group of nontumored mice treated in parallel with the
tumorbearing mice and observed for 100 days.

[4] = system: CX-1 human colon adenocarcinoma; assay: Chemotherapy of human colon CX-1 tumor heterotransplanted in nude mice; format: in vivo, human tumor in athymic mice; conditions: for response of CX-1 tumor to treatment (in words): three iv treatments weekly from 15th day of transplant, at the doses tested; for % T/C, optimal: TST 15, observed day 22
Procedure: Tables XI and XII show the effectiveness of SAD (2) and RAD (3b and 3c) against CX-1 human colon adenocarcinoma heterotransplanted into athymic mice, with three iv treatments with drugs on a weekly schedule starting on the 15th day of tumor transplant. AMD and the analogues were tested at doses of 45 and 60 ug/kg.
^a -, % T/C high than 50%; ±, % T/C close to 50%; +, % T/C from 50
to 35%; ++, % T/C from 35% to 20%; +++, % T/C lower than 20%; ++++,
regression of the tumor to a volume lower than 10% of the volume at the
start of treatment. ^b Statistically significant as evaluated by the
^a Intravenous treatment, once a week for three weeks; eight mice per
group. ^b TST; number of days between tumor transplant and starting o
treatment. ^c Numbers in parentheses; day of observation after the […]

B16 melanoma = assay: In vivo antitumor activity against B16 melanoma; set-up: species or system BDF1 mice; conditions: for % ILS / survivors on day 65/total injected / MST (range), median survival time: at optimal dose, ip days 1, 5, 9; for MST (range), median survival time: range of days of death; for optimal dose: ip, days 1, 5, 9
Procedure: ^a 0.2 mL of 1:5 (weight/volume) brei of B16 melanoma implanted
ip on day 0 in groups of nine BDF1 mice. Drugs administered ip^b
MST (range), median survival time in days (range of days for death of
individual animal). ^c % ILS (surv), percent increase in life span
(survivors on day 65/total injected).

lung LX-1 = assay: Treatment of lung LX-1 tumor; format: in vivo; conditions: at the doses tested
colon 38 adenocarcinoma = assay: Activity against advanced colon carcinoma C38 tumor; format: in vivo, CDF1 mice; conditions: for % inhibn of tumor: tumors measured day 21
Procedure: In view of favorable activity agianst colon 26 carcinoma, further experiments using the active analogues were carried out on the advanced colon adenocarcinomas of mouse colon 38. […] The superiority of RAD III and SAD over AMD in inhibiting colon 38 carcinoma is evident from the data of both tumor weight inhibition and increases in survival time of the treated over nontreated mice and the larger number of long-term survivors produced by these analogues.
^a CDF1 mice were injected sc with colon 38 adenocarcinoma
fragments (70 mg) and treated with drugs with iv injections on day 1, 5,
and 9 following tumor imoplantation on day 0. ^b [100 (tumor weight o
treated mice/tumor weight of untreated mice)] × 100; data pooled
from two experiments, tumors measured on day 21 after implantation ^c
(Median survival time of treated mice/median survival of untreated mice)
× 100; in parenthesis, number of over 100 day survivors/number of […]

rat liver microsomes = assay: Metabolism in rat liver microsomes (M); format: in vitro ADME; conditions: 6 h, NADPH-generating system
Procedure: as §1, §2

[5] = Maximum tolerated dose (LD10) in tumor-free male mice; conditions: ip days 1, 5, 9; deaths observed during 21 days; from plot of log dose vs percent mortality
Procedure: The analogues were also tested in tumor-free male mice for their LD10 values (Table XIV). The animals were given a broad range of doses (ip) on days 1, 5, and 9. The maximum tolerated doses of AMD and the analogues that caused death in only 10% of the tested animals in 21 days (i.e., LD10) were recorded as MTD. […] On the basis of these values, the calculated therapeutic index values of SAD is 96, and those of RAD I, II, and III are 60, 67, and 70, respectively.
control in P388 tumor bearing mice. ^c MTD (maximum tolerated dose) i
the lethal dose (milligram/kilogram) for 10% normal BDF1 male mice
days). Values were calculated from a plot of log dose vs percent

[6] = dose 0.30 mg/kg iv days 1, 5, 9
[7] = dose 0.60 mg/kg iv days 1, 5, 9
[8] = dose 1.20 mg/kg iv days 1, 5, 9
[9] = dose 0.15 mg/kg iv days 1, 5, 9
[10] = dose 45 μg/kg iv once a week for three weeks
[11] = dose 60 μg/kg iv once a week for three weeks
[12] = dose 0.075 mg/kg iv days 1, 5, 9
[13] = dose 0.45 mg/kg iv days 1, 5, 9

SMILES | tumor free survivors/total on day 60 [1] | response of mammary MX-1 to treatment (mammary MX-1) | percent unconverted drug [2] | toxic deaths [3, 6] | toxic deaths [3, 7] | toxic deaths [3, 8] | response of CX-1 tumor to treatment (in words) [4] | % ILS (B16 melanoma) | survivors on day 65/total injected (B16 melanoma) | MST (range), median survival time (B16 melanoma) | optimal dose (B16 melanoma) | response of lung LX-1 to treatment (lung LX-1) | % T/C (median survival time) (colon 38 adenocarcinoma; [6]) | % inhibn of tumor (colon 38 adenocarcinoma; [6]) | % T/C (median survival time) (colon 38 adenocarcinoma; [7]) | over 100 day survivors/number of mice (colon 38 adenocarcinoma; [7]) | % inhibn of tumor (colon 38 adenocarcinoma; [7]) | % T/C (median survival time) (colon 38 adenocarcinoma; [8]) | over 100 day survivors/number of mice (colon 38 adenocarcinoma; [8]) | MTD (maximum tolerated dose), lethal dose for 10% of normal mice (LD10) [5] | also measured
Cc1c2oc3c(C)c(O)c(N)c(C(=O)N[C@@H]4C(=O)N[C@H](C(C)C)C(=O)N5CCC[C@H]5C(=O)N(C)CC(=O)N(C)[C@@H](C(C)C)C(=O)O[C@@H]4C)c3nc-2c(C(=O)N[C@@H]2C(=O)N[C@H](C(C)C)C(=O)N3CCC[C@H]3C(=O)N(C)CC(=O)N(C)[C@@H](C(C)C)C(=O)O[C@@H]2C)c(N)c1=O [SAD (2)] | 3/8 | practically ineffective | 30-50% | 0/9 | 0/9 | 4/9 | responded fairly well to SAD treatment but at 60 ug/kg only | 96% | 4/9 | 57(33-61) days | 300 μg/kg per inj | practically ineffective | 278% | 95% | 278% | 6/9 | 97% | 211% | 2/9 | 2.40 milligram/kilogram | percent isolated: tissue bound [2]: 7.5 ± 1.0%; percent isolated: unidentified metabolite [2]: 10.0 ± 1.0%; percent metabolite isolated: SAD-glucuronide and/or sulfate [2]: 47.0 ± 6.5%; percent metabolite isolated: protein conjugates [2]: 5.5 ± 1.5%; percent unconverted drug ([2]; listed as SAD(2)): 30.0 ± 3.0%; over 100 day survivors/number of mice (colon 38 adenocarcinoma; [6]): 5/9; % inhibn of tumor (colon 38 adenocarcinoma; [8]): 99%; activity relative to AMD at equivalent doses (colon 38 adenocarcinoma; every 4 days, three times, from day 1 after implant): about 150%; percent isolated: tissue bound (rat liver microsomes): 15.0 ± 3.0%; percent isolated: unidentified metabolite (rat liver microsomes): 15.0 ± 4.0%; percent metabolite isolated: SAD-glucuronide and/or sulfate (rat liver microsomes): nil; percent metabolite isolated: protein conjugates (rat liver microsomes): 20.0 ± 5.0%; percent unconverted drug (rat liver microsomes): 50.0 ± 10.5%
Cc1c2oc3c(C)c4oc(-c5ccccc5)nc4c(C(=O)N[C@@H]4C(=O)N[C@H](C(C)C)C(=O)N5CCC[C@H]5C(=O)N(C)CC(=O)N(C)[C@@H](C(C)C)C(=O)O[C@@H]4C)c3nc-2c(C(=O)N[C@@H]2C(=O)N[C@H](C(C)C)C(=O)N3CCC[C@H]3C(=O)N(C)CC(=O)N(C)[C@@H](C(C)C)C(=O)O[C@@H]2C)c(N)c1=O [RAD II (3b)] | 1/8 |  |  | 0/9 | 0/9 | 4/9 | marginal but positive activity | 103% | 5/9 | 59(53-59) days | 300 μg/kg per inj |  | 137% | 70% | 170% | 3/9 | 83% | 103% | 2/9 | 2.00 milligram/kilogram | toxic deaths [3, 9]: 1/9; % T/C, optimal [4, 10]: 48%; % T/C, optimal [4, 11]: 24%; % T/C (median survival time) (colon 38 adenocarcinoma; [9]): 103%; over 100 day survivors/number of mice (colon 38 adenocarcinoma; [9]): 1/9; % inhibn of tumor (colon 38 adenocarcinoma; [9]): 29%; % inhibn of tumor (colon 38 adenocarcinoma; [8]): 88%
Cc1c2oc3c(C)ccc(C(=O)N[C@@H]4C(=O)N[C@H](C(C)C)C(=O)N5CCC[C@H]5C(=O)N(C)CC(=O)N(C)[C@@H](C(C)C)C(=O)O[C@@H]4C)c3nc-2c(C(=O)N[C@@H]2C(=O)N[C@H](C(C)C)C(=O)N3CCC[C@H]3C(=O)N(C)CC(=O)N(C)[C@@H](C(C)C)C(=O)O[C@@H]2C)c(N)c1=O [AMD (1), Actinomycin D] (I: T[dV]P[Sar][NMeV] / II: T[dV]P[Sar][NMeV]; ester I:1-I:C, II:1-II:C; linker I:N-II:N via Actinocin(9to1)) |  | practically ineffective | 100% | 0/9 | 4/9 |  | ineffective | 48% | 2/9 | 43(36-54) days | 250 μg/kg per inj | practically ineffective | 134% | 67% | 103% |  | 89% |  |  | 0.25 milligram/kilogram | toxic deaths [3, 12]: 0/9; toxic deaths [3, 9]: 1/9; toxic deaths [3, 13]: 1/9; % T/C, optimal [4, 10]: 34%; % T/C, optimal [4, 11]: 36%; % T/C (median survival time) (colon 38 adenocarcinoma; [12]): 100%; % inhibn of tumor (colon 38 adenocarcinoma; [12]): 30%; % T/C (median survival time) (colon 38 adenocarcinoma; [9]): 107%; % inhibn of tumor (colon 38 adenocarcinoma; [9]): 30%; % T/C (median survival time) (colon 38 adenocarcinoma; [13]): 170%; % inhibn of tumor (colon 38 adenocarcinoma; [13]): 83%; percent unconverted drug (rat liver microsomes): 100%

Source: patent US4966962A, “Reverse analogue of actinomycin D” (Trustees of Boston University, priority 1988, dated 1990)
